According to US9809574B2, “Isoindoline or isoquinoline compounds, a process for their preparation and pharmaceutical compositions containing them” (LES LABORATOIRES SERVIER, priority 2013, dated 2017):
Structures can show the parent of a compound that is named as a salt.

Legend:
[1] = target: Bcl-2 protein (histag-Bcl-2, UniProtKB P10415) (Homo sapiens (Human), UniProt P10415); experiment: Inhibition of Bcl-2 by the fluorescence polarisation technique; type: binding; conditions: fluorescence polarisation test; incubation for 2 hours; read-out: IC50 (nM) Bcl-2 FP
Sequence of Bcl-2 protein (P10415 whole entry): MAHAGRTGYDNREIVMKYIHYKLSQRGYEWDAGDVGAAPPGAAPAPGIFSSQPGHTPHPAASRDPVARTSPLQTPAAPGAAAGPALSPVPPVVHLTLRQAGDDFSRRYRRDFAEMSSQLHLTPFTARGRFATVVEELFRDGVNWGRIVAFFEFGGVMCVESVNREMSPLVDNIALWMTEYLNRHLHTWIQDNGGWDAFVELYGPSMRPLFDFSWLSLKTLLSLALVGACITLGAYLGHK
Text: For partial inhibitors, the percentage fluorescence polarisation inhibition for a given concentration of the test compound is indicated.

[2] = test system: RS4; 11 leukaemia cell line; experiment: In vitro cytotoxicity, Microculture Tetrazolium Assay (MTT); type: cell-based; conditions: Homo sapiens, 11 cells exposed for 48 hours
Experimental: The cytotoxicity studies were carried out on the RS4; 11 leukaemia cell line and on H146 small Cell Lung Carcinoma cell line. The cells are distributed onto microplates and exposed to the test compounds for 48 hours. The cell viability is then quantified by a colorimetric assay, the Microculture Tetrazolium Assay (Cancer Res., 1987, 47, 939-942).

| Compound | IC50 [1] [nM] | IC50 [2] [nM] |
| --- | --- | --- |
| C[C@@H]1Cc2ccccc2CN1C(=O)c1cc2c(cc1-c1cc(C(=O)N(C)c3ccc(O)cc3)c3n1CCCC3)CCN(C(=O)NCc1ccccc1)C2 [Example 73, N-Benzyl-6-{1-[(4-hydroxyphenyl)(methyl)carbamoyl]-5,6,7,8-tetrahydroindolizin-3-yl}-7-[(3R)-3-methyl-1,2,3,4-tetrahydroisoquinoline-2-carbonyl]-1,2,3,4-tetrahydroisoquinoline-2-carboxamide] | 4.3 | 36 |
| CN(C(=O)c1cc(-c2cc3c(cc2C(=O)N2Cc4ccccc4C[C@H]2CN2CCOCC2)CN(C(=O)Cc2ccccc2)CC3)n2c1CCCC2)c1ccc(O)cc1 [Example 70, N-(4-Hydroxyphenyl)-N-methyl-3-{7-[(3S)-3-(morpholin-4-ylmethyl)-1,2,3,4-tetrahydroisoquinoline-2-carbonyl]-2-(2-phenylacetyl)-1,2,3,4-tetrahydroisoquinolin-6-yl}-5,6,7,8-tetrahydroindolizine-1-carboxamide] | 5.1 | 9.8 |
| CN(C(=O)c1cc(-c2cc3c(cc2C(=O)N2Cc4ccccc4C[C@H]2CN2CCOCC2)CN(C(=O)COc2ccccc2)C3)n2ccccc12)c1ccc(O)cc1 [Example 166, N-(4-Hydroxyphenyl)-N-methyl-3-{6-[(3S)-3-(morpholin-4-ylmethyl)-1,2,3,4-tetrahydroisoquinoline-2-carbonyl]-2-(2-phenoxyacetyl)-2,3-dihydro-1H-isoindol-5-yl}indolizine-1-carboxamide] | 6.4 | 58 |
| Cc1ccccc1OC(=O)N1CCc2cc(-c3cc(C(=O)N(C)c4ccc(O)cc4)c4n3CCCC4)c(C(=O)N3Cc4ccccc4C[C@H]3CN3CCOCC3)cc2C1 [Example 100, 2-Methylphenyl 6-{1-[(4-hydroxyphenyl)(methyl)carbamoyl]-5,6,7,8-tetrahydroindolizin-3-yl}-7-[(3S)-3-(morpholin-4-ylmethyl)-1,2,3,4-tetrahydroisoquinoline-2-carbonyl]-1,2,3,4-tetrahydroisoquinoline-2-carboxylate] | 3.9 | 6.5 |
| C[C@@H]1Cc2ccccc2CN1C(=O)c1cc2c(cc1-c1cc(C(=O)N(C)c3ccc(O)cc3)c3n1CCCC3)CCN(C(=O)Nc1ccccc1)C2 [Example 71, 6-{1-[(4-Hydroxyphenyl)(methyl)carbamoyl]-5,6,7,8-tetrahydroindolizin-3-yl}-7-[(3R)-3-methyl-1,2,3,4-tetrahydroisoquinoline-2-carbonyl]-N-phenyl-1,2,3,4-tetrahydroisoquinoline-2-carboxamide] | 3.7 | 9.9 |
| Cc1c(C(=O)N(C)c2ccc(O)cc2)cc(-c2cc3c(cc2C(=O)N2Cc4ccccc4C[C@H]2C)CN(C(=O)C(C)Oc2ccccc2)C3)n1C (stereo partly drawn) [Example 104, N-(4-hydroxyphenyl)-N,1,2-trimethyl-5-{6-[(3R)-3-methyl-1,2,3,4-tetrahydroisoquinoline-2-carbonyl]-2-(2-phenoxypropanoyl)-2,3-dihydro-1H-isoindol-5-yl}-1H-pyrrole-3-carboxamide] | 6.7 | 65 |
| CN(C(=O)c1cc(-c2cc3c(cc2C(=O)N2Cc4ccccc4C[C@H]2CN2CCOCC2)CN(C(=O)NC(C)(C)C)C3)n2c1CCCC2)c1ccc(O)cc1 [Example 17, N-tert-Butyl-5-{1-[(4-hydroxyphenyl)(methyl)carbamoyl]-5,6,7,8-tetrahydroindolizin-3-yl}-6-[(3S)-3-(morpholin-4-ylmethyl)-1,2,3,4-tetrahydroisoquinoline-2-carbonyl]-2,3-dihydro-1H-isoindole-2-carboxamide hydrochloride] | 91 | 1760 |
| Cc1c(C(=O)N(C)c2ccccc2)cc(-c2cc3c(cc2C(=O)N2Cc4ccccc4C[C@H]2C)CN(C(=O)Cc2ccc(NCCN(C)C)cc2)CC3)n1C [Example 149, 5-{2-[2-(4-{[2-(Dimethylamino)ethyl]amino}phenyl)acetyl]-7-[(3R)-3-methyl-1,2,3,4-tetrahydroisoquinoline-2-carbonyl]-1,2,3,4-tetrahydroisoquinolin-6-yl}-N,1,2-trimethyl-N-phenyl-1H-pyrrole-3-carboxamide] | 11 | 124 |
